The record followed here is patent publication US20110224300A1, “USE OF POTASSIUM 2-(a- HYDROXYPENTYL) BENZOATE IN THE MANUFACTURE OF MEDICAMENTS FOR PREVENTING AND/OR TREATING SENILE [sequence]” (Institute of Mataria Medica, Chinese Academy of Me, priority 2008, published 2011).

The subject of one assay is ChAT. In words: ChAT activity of brain tissues from Aβ(25-35)-induced dementia rats. The format is in vivo, Male Wistar rats. The conditions noted are these: Aβ(25-35) rats, 2 weeks. Here is the method: (§1) The biochemical assays were conducted later (in 24 h) after behavioral testing. Eight rats in each group were anesthetized with ether and sacrificed. The brains were quickly removed and cleaned with ice-cold saline. Then the parietal cortex and hippocampus were isolated. For biochemical analysis, the tissues were weighed and homogenized in ice-cold saline with the proportion of 1:9 (w/v). Homogenization (IKA, Germany) was carried out for 2 min in an ice bath. After the homogenates were centrifuged at 2,000×g for 10 min at 4° C. (Sigma, Germany), the supernatant was used for analytical procedures. The levels of choline acetyltransferase (ChAT) SOD, and MDA activities were determined with commercial colorimetric assay kits (Nanjing Jiancheng Bioengineering Institute, China). The content of protein in the supernatant was determined by Bradford method using BSA as standard.
(§2) Rats were divided into four experimental groups randomly (10 rats/each group): one sham-operated group, one vehicle control group, and two dl-PHPB-treated groups (39, and 129 mg/kg). At 1 days after operation, drugs and vehicle were administered orally to rats for 14 days (one time/each day). The spatial learning and memory abilities of rats were detected by Morris water maze in the 9-12 days after operation. The testing of Morris water was commenced at 40 min after drugs treated. […]

Assay [1] has as its system SOD. The assay is described as follows: SOD activity of brain tissues from SAMP8 mice. The conditions noted are these: 35 days; for SOD activity in the hippocampus: untreated SAMP8 279.4±65.7, P<0.05. The format is in vivo. On the procedure: as §1
(§3) SAMP8 were divided into three experimental groups randomly: one vehicle control group, and two dl-PHPB-treated groups (50, and 160 mg/kg). Drugs and vehicle were administered orally to SAMP8 mice for 35 days (one time/each day). The spatial learning and memory abilities of SAMP8 mice were detected by Morris water maze and DTT-2 jumping apparatus in 31-35 days. The testing was commenced at 40 min after drugs treated. The biochemical and pathology assays conducted later (in 24 h) after behavioral testing.
The methods as described previously.

Assay [2] relates to corpus callosum and optic tract of 2-VO rats. In words: Klüver-Barrera staining in 2-VO rats. The assay is classed as in vivo, rat. The conditions noted are these: for improvement of pathological damage of the corpus callosum, K-B staining: 21 days, rank among doses. Here is the method: Four rats in each group were anesthetized with sodium pentobarbital (100 mg/kg, intraperitoneal injection), and perfused transcardially with cold saline, followed by 300 ml of 4% paraformaldehyde in 0.01 M phosphate buffer (pH 7.4). After these procedures, the brains were removed and stored in the 0.01 M phosphate buffer (pH 7.4) with 4% paraformaldehyde and 30% sucrose at 4° C. until fully equilibrated. Then they were postfixed at 4° C., dehydrated and embedded in paraffin blocks. Coronal sections of 8 μm were stained with hematoxylin-eosin and Klüver-Barrera.
KB staining could reflect the morphological changes of neuronal myelin sheath, and the morphological changes of nerve fibers.

In the next assay the test system is MDA. In words: MDA level of brain tissues from Aβ(25-35)-induced dementia rats. The format is in vivo, Male Wistar rats. Particulars: Aβ(25-35) rats, 2 weeks, vehicle 5.43±0.55. On the procedure: as §1, §2
The test system of another assay is SAMP8 mice. The assay is described as follows: Step down test in SAMP8 mice. The assay is classed as in vivo. Particulars: for step-down latency time: vehicle 0.7±0.2, P<0.01. Here is the method: as §3
The step-down avoidance task was performed by using a behavior box (22 cm×15 cm×30 cm each). Each testing chamber has 3 Plexiglas black walls, a clear Plexiglas front wall, metal grid floors and an insulating platform (3 cm diameter, 4 cm height), which is located at one corner of the testing chamber. The metal grids are connected to the output terminals of an electrical stimulator. For the habituation session, each mouse was gently placed on the insulating platform and was allowed to explore in the testing chamber for 3 min before placing back on the platform again. Monophasic pulses (1 ms, 1 Hz, 36 VDC) were continuously delivered for 5 min during the training tria. If the mouse steps down from the platform onto the grid floor, the mouse will be subjected to receive an electric shock until returning to the platform. Then, 24 h after the training, the mice were placed on the platform for assessing their long term memory of retention period. The electric shocks were delivered for 5 min and the latency to step down on the grid with four paws for the first time (step-down latency) and the numbers of errors subjected to shocks within 5 min were recorded.

Assay [3] has as its system SOD. The assay is described as follows: SOD activity of brain tissues from permanent 2-VO rats. The assay is classed as in vivo, rat. Particulars: for SOD activity in cortex: 21 days. On the procedure:
In 10 days after onset of 2-VO, drugs and vehicle were administered orally to rats for 21 days (one time/each day). The spatial learning and memory capability of rats were detected by Morris water maze in the 25-30 days after operation. The Morris water test was commenced at 40 min after drugs treated. The biochemical and pathology assays were conducted later (in 24 h) after behavioral tests.
as §1

For the next assay, the system named is BDNF. In words: BDNF immunohistochemistry in 2-VO rats. Particulars: for BDNF expression in hippocampus CA1, CA2, CA3 area: 21 days. The assay is classed as in vivo, rat. Here is the method: The method for tissue fixation was described above. Serial coronal sections (40 μm) of the brains were cut through the dorsal hippocampus on a freezing microtome and collected in 6-well plates containing 0.01 M PBS. The detection of GFAP and BDNF immunoreactivity was performed using a conventional avidin-biotin-immunoperoxidease technique.
For quantitative analysis, one from every five samples in a continuous series of hippocampal or cortical tissue sections was taken, and was processed immunohistochemically. Thus, three slides were taken from each rat, and were read under an objective (×1.6) microscope. The total area of positively stained neurons was counted with Image-pro Plus 5.0 software.

On to `CCCCC(O)c1ccccc1C(=O)[O-].[K+]` (racemic) [dl-PHPB, Potassium 2-(1-Hydroxypentyl)-benzoate], for which the “cortical ChAT activity” value in the assay with ChAT (39 mg/kg, P<0.05) is listed as “significantly increased the ChAT activity”; with ChAT (129 mg/kg) it was “strong trend”. Also, the “SOD activity in the hippocampus” value with SOD [1] (50 mg/kg oral) is reported as 156.2±7.8 U/mg protein; with SOD [1] (160 mg/kg oral) it was 158.7±11.4 U/mg protein. Also, the “SOD activity in the cortex” value in the assay with SOD [1] (cortex) is “did not significantly improve SOD activity”. In addition, the results for the “improvement of pathological damage of the corpus callosum, K-B staining” value in assay [2] (dl-PHPB 13 mg/kg) and in assay [2] (dl-PHPB 39 mg/kg) were “the weakest” and “strongest”, respectively. Also, the “pathological changes of the optic tract, K-B staining” value in assay [2] (dl-PHPB 39 mg/kg) is “strong role”; in assay [2] (dose not specified), “a certain improvement”. Besides, the “cortex MDA level” value in the assay with MDA (39 mg/kg oral, P<0.05) stood at 3.62±0.21 nmol/mg protein; in the assay on MDA (129 mg/kg oral, P<0.01) it was 3.28±0.25 nmol/mg protein. Moreover, the “numbers of errors subjected to shocks” value in the assay on SAMP8 mice (50 mg/kg oral, first day of training, vehicle 8.3±0.6, P<0.01) is reported as 5.8±0.5; in the assay on SAMP8 mice (50 mg/kg oral, second day, vehicle 4.6±0.3, P<0.05), 3.4±0.3; with SAMP8 mice (160 mg/kg oral, first day of training, vehicle 8.3±0.6, P<0.001) it was 4.9±0.5; with SAMP8 mice (160 mg/kg oral, second day, vehicle 4.6±0.3, P<0.01), 2.1±0.3. Also, the step-down latency time with SAMP8 mice (50 mg/kg oral) is 5.5±0.8; in the assay on SAMP8 mice (160 mg/kg oral), 10.2±2.4. Also, the “SOD activity in cortex” value in the assay on SOD [3] (dl-PHPB 13 mg/kg) and with SOD [3] (dl-PHPB 39 mg/kg) was “significantly alleviated the increase of SOD activity” each time. The “SOD activity in hippocampus” value in the assay with SOD [3] (hippocampus, doses not given) is given as “no significant effects”. Also, the “BDNF expression in hippocampus CA1, CA2, CA3 area” value in the assay on BDNF (dl-PHPB 39 mg/kg, P<0.05 or P<0.01) is recorded as “significantly increased BDNF expression”; with BDNF (dl-PHPB 129 mg/kg), “only a trend without statistical significance”. Moreover, the “expression of BDNF in the cortex (staining intensity)” value in the assay on BDNF (strongest at 39 mg/kg, succeeded by 129 mg/kg and 13 mg/kg) is reported as “increase the expression of BDNF”.
